Reference: patent US7294637B2 (Sepracor, Inc., priority 2000, dated 2007)
Read-outs that look alike come from different tables or passages of the source.

Legend:
[1] = target: norepinephrine transporter (Homo sapiens, UniProt P23975); test: NE uptake: displacement of norephinephrine ligands in vitro (methods of Galli et al.); type: binding
serotonin transporter = serotonin transporter (Homo sapiens, UniProt P31645); test: 5-HT uptake: displacement of serotonin ligands in vitro (methods of Gu et al.); type: binding
dopamine transporter = dopamine transporter (Homo sapiens, UniProt Q01959); test: DA uptake: displacement of dopamine ligands in vitro (methods of Gu et al.)
[2] = NE Uptake, Uptake Profile (IC50, nM)
[3] = displacement of serotonin ligands in vitro, read-out: 5-HT Uptake, Uptake Profile (IC50)
[4] = DA Uptake, Uptake Profile (IC50, nM), displacement of dopamine ligands in vitro
[5] = read-out: NE Uptake, Uptake Profile (IC50)
[6] = read-out: DA Uptake, Uptake Profile (IC50), displacement of dopamine ligands in vitro
[7] = 5-HT Uptake, Uptake Profile (IC50, nM)

Chain of dopamine transporter (Q01959 whole entry): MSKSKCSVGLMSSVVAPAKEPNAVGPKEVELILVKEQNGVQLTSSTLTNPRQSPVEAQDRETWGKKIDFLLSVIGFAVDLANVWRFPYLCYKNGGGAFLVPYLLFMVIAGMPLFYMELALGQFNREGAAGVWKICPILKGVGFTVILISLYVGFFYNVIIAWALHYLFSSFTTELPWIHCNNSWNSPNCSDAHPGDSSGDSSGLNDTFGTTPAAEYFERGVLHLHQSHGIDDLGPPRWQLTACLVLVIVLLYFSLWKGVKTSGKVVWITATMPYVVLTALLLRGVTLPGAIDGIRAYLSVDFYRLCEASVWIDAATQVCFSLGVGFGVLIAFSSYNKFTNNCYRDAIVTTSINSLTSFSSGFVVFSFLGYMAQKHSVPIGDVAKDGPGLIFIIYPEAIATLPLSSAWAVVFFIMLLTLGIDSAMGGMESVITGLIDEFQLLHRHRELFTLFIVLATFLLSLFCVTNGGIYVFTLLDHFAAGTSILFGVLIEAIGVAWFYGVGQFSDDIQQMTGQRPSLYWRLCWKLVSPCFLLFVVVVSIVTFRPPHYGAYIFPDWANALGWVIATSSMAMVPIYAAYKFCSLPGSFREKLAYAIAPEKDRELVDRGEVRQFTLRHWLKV
Chain of serotonin transporter (P31645 whole entry): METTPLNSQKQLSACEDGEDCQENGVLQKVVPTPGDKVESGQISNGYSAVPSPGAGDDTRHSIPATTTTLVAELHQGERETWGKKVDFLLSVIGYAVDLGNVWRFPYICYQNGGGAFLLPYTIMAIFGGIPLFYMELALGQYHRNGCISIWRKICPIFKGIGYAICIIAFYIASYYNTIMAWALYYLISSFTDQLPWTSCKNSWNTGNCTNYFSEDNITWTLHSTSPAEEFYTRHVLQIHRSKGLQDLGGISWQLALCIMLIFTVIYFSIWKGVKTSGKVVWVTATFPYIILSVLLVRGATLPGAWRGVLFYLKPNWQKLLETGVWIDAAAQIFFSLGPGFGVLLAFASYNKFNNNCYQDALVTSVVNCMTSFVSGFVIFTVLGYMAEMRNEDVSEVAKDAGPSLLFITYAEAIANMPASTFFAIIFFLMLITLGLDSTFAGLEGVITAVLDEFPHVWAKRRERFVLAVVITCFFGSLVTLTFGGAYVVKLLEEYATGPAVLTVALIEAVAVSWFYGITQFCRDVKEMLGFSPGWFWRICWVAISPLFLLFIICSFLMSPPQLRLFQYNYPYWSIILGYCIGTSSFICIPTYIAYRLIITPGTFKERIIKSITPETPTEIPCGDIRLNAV
Chain of norepinephrine transporter (P23975 whole entry): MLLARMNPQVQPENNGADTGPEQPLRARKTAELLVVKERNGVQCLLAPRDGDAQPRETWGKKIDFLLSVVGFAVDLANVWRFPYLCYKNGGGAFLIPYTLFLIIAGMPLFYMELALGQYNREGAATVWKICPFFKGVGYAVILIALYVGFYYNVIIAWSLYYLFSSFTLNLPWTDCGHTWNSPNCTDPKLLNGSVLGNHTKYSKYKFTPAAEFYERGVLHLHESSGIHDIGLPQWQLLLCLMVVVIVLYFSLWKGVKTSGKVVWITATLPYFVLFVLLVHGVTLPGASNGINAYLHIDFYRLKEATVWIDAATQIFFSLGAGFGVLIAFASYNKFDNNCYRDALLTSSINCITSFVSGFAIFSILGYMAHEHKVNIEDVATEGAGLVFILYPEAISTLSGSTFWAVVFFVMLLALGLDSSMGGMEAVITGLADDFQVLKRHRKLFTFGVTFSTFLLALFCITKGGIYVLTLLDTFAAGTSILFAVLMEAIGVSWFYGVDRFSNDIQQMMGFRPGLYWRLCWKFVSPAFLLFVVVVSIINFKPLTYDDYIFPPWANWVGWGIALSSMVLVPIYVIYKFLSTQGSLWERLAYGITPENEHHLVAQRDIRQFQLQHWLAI

SMILES | IC50 [1, 2] | IC50 (serotonin transporter; [3]) | IC50 (dopamine transporter; [4]) | IC50 [1, 5] | IC50 (dopamine transporter; [6]) | IC50 (dopamine transporter) | IC50 (serotonin transporter; [7])
c1ccc(OCC2CCCN(CC3(c4ccccc4)CCC3)C2)cc1 (stereo not drawn) [compound 34, 3-Phenoxymethyl-1-(1-phenyl-cyclobutylmethyl)-piperidine] | < 1000 nM | < 1000 nM | < 1000 nM |  |  |  | 
OC(CN1CCCC(COc2ccc(OC(F)(F)F)cc2)C1)C1(c2ccc(OC(F)(F)F)cc2)CCC1 (stereo not drawn) [compound 212, 2-[3-(4-Trifluoromethoxy-phenoxymethyl)-piperidin-1-yl]-1-[1-(4-trifluoromethoxy-phenyl)-cyclobutyl]-ethanol] | < 1000 nM | < 1000 nM | < 100 nM |  |  |  | 
FC(F)(F)c1ccc(OCC2CCCN(CC3COc4ccccc4O3)C2)cc1 (single isomer, unassigned) [compound 176, 1-(2,3-Dihydro-benzo[1,4]dioxin-2-ylmethyl)-3-(4-trifluoromethyl-phenoxymethyl)-piperidine] | > 1000 nM | < 1000 nM | < 1000 nM |  |  |  | 
FC(F)(F)c1ccc(OCC2CNCCCO2)cc1 (stereo not drawn) [compound 15, 2-(4-trifluoromethyl-phenoxymethyl)-[1,4]oxazepane] |  | > 1000 nM | > 1000 nM | > 1000 nM |  |  | 
Clc1ccc(C2(CN3CCCC(CCc4ccccc4)C3)CCC2)cc1 (stereo not drawn) [compound 147, 1-[1-(4-Chloro-phenyl)-cyclobutylmethyl]-3-phenethyl-piperidine] | < 100 nM | > 1000 nM | < 1000 nM |  |  |  | 
CC(C)(CN1CCC[C@@H](COc2ccc(C(F)(F)F)cc2)C1)c1ccc(Cl)cc1 [compound 122] |  | > 1000 nM |  | > 1000 nM | < 1000 nM |  | 
CO[C@@H](CN1CCC[C@@H](COc2ccc(C(F)(F)F)cc2)C1)C1(c2ccc(Cl)cc2)CCC1 [compound 160] | > 1000 nM | < 1000 nM | < 100 nM |  |  |  | 
FC(F)(F)c1ccc(OCC2CCCCN(CC3(c4ccc(Cl)cc4)CCC3)C2)cc1 (stereo not drawn) [compound 168, 1-[1-(4-Chloro-phenyl)-cyclobutylmethyl]-3-(4-trifluoromethyl-phenoxymethyl)-azepane] | < 1000 nM | > 1000 nM | < 100 nM |  |  |  | 
FC(F)(F)c1ccc(SCC2CCCN(CC3(c4ccc(Cl)cc4)CCC3)C2)cc1 (stereo not drawn) [compound 78] | < 1000 nM | > 1000 nM | < 1000 nM |  |  |  | 
OC(CN1CCCC(CCc2ccccc2)C1)c1ccc(Cl)cc1 (single isomer, unassigned) [compound 142, 1-(4-Chloro-phenyl)-2-(3-phenethyl-piperidin-1-yl)-ethanol] | < 1000 nM | < 100 nM | < 1000 nM |  |  |  | 
COc1ccc2[nH]cc(CCN3CCCC(COc4ccc(C(F)(F)F)cc4)C3)c2c1 (stereo not drawn) [compound 220, 5-Methoxy-3-{2-[3-(4-trifluoromethyl-phenoxymethyl)-piperidin-1-yl]-ethyl}-1H-indole] | < 1000 nM | < 100 nM | < 1000 nM |  |  |  | 
OC(CN1CCCC(COc2ccc(C(F)(F)F)cc2)C1)c1ccc(Cl)cc1 (stereo not drawn) [compound 136, 1-(4-Chloro-phenyl)-2-[3-(4-trifluoromethyl-phenoxymethyl)-piperidin-1-yl]-ethanol] | < 1000 nM | < 100 nM | < 1000 nM |  |  |  | 
OC(CN1CCCC(CCc2ccc(C(F)(F)F)cc2)C1)c1ccc(Cl)cc1 (single isomer, unassigned) [compound 153, 1-(4-Chloro-phenyl)-2-{3-[2-(4-trifluoromethyl-phenyl)-ethyl]-piperidin-1-yl}-ethanol] | < 100 nM | < 10 nM | < 100 nM |  |  |  | 
CO[C@H](CN1CCC[C@@H](COc2ccc(C(F)(F)F)cc2)C1)C1(c2ccc(Cl)cc2)CCC1 [compound 161] | < 1000 nM | < 1000 nM | < 10 nM |  |  |  | 
CC(O)(C[C@H]1CCCN(CC2(c3ccc(Cl)cc3)CCC2)C1)c1ccccc1 (stereo in doubt) [compound 185, (S)-[1-{1-[1-(4-Chloro-phenyl)-cyclobutylmethyl]-piperidin-3-yl}-2-phenyl-propan-2-ol]] |  | > 1000 nM | < 1000 nM | > 1000 nM |  |  | 
CC(O)(CN1CCC[C@@H](CCc2ccccc2)C1)c1ccc(Cl)cc1 (stereo partly drawn) [compound 197, 2-(4-Chloro-phenyl)-1-(3 (R)-phenethyl-piperidin-1-yl)-propan-2-ol] | < 1000 nM | < 10 nM | < 1000 nM |  |  |  | 
OC(CN1CCCC(COc2ccc(C(F)(F)F)cc2)C1)C1(c2ccccc2OC(F)(F)F)CCC1 (single isomer, unassigned) [compound 228, 1-[1-(2-Trifluoromethoxy-phenyl)-cyclobutyl]-2-[3-(4-trifluoromethyl-phenoxymethyl)-piperidin-1-yl]-ethanol] |  | > 1000 nM | > 1000 nM | > 1000 nM |  |  | 

SMILES | IC50 [1, 2] | IC50 (serotonin transporter; [3]) | IC50 (dopamine transporter; [4]) | IC50 [1, 5] | IC50 (dopamine transporter; [6]) | IC50 (dopamine transporter) | IC50 (serotonin transporter; [7])
OC(CN1CCCC(COc2ccc(OC(F)(F)F)cc2)C1)C1(c2ccc(Cl)cc2)CCC1 (stereo not drawn) [compound 210, 1-[1-(4-Chloro-phenyl)-cyclobutyl]-2-[3-(4-trifluoromethoxy-phenoxymethyl)-piperidin-1-yl]-ethanol] | < 100 nM | < 1000 nM | < 10 nM |  |  |  | 
OC(CN1CCCC(COc2ccc(C(F)(F)F)cc2)C1)C1(c2ccc(Cl)cc2)CCC1 (stereo not drawn) [compound 24, 1-[1-(4-Chlorophenyl)cyclobutyl]-2-[3-(4-trifluoromethylphenoxymethyl)piperidin-1-yl]ethanol] | < 10 nM | < 1000 nM | < 10 nM |  |  |  | 
COC(CC1CCCN(CC2(c3ccc(Cl)cc3)CCC2)C1)c1ccccc1 (stereo in doubt) [compound 184, (S)-[1-[1-(4-Chloro-phenyl)-cyclobutylmethyl]-3-(2-methoxy-2-phenyl-ethyl)-piperidine]] | < 1000 nM | < 1000 nM | < 1000 nM |  |  |  | 
COc1ccc(C2(CN3CCC[C@@H](COc4ccc(OC(F)(F)F)cc4)C3)CCC2)cc1 [compound 170, (R)-1-[1-(4-Methoxy-phenyl)-cyclobutylmethyl]-3-(4-trifluoromethoxy-phenoxymethyl)-piperidine] | < 1000 nM | < 1000 nM | < 10 nM |  |  |  | 
FC(F)(F)c1ccc(OCCC2CCCN(CC3(c4ccc(Cl)cc4)CCC3)C2)cc1 (stereo not drawn) [compound 39, 1-[1-(4-Chloro-phenyl)-cyclobutylmethyl]-3-[2-(4-trifluoromethyl-phenoxy)-ethyl]-piperidine] | < 100 nM | > 1000 nM | < 10 nM |  |  |  | 
O=C(CN1CCCC(CCc2ccc(C(F)(F)F)cc2)C1)C1(c2ccc(Cl)cc2)CCC1 (stereo not drawn) [compound 155, 1-[1-(4-Chloro-phenyl)-cyclobutyl]-2-{3-[2-(4-trifluoromethyl-phenyl)-ethyl]-piperidin-1-yl}-ethanone] | > 1000 nM | > 1000 nM | < 100 nM |  |  |  | 
FC(F)(F)c1ccc(CCC2CCCN(CC3(c4ccccc4)CCC3)C2)cc1 (stereo not drawn) [compound 93, 1-(1-phenyl-cyclobutylmethyl]-3-[2-(4-trifluoromethyl-phenyl)-ethyl]-piperidine] |  | < 1000 nM |  | > 1000 nM |  | > 1000 nM | 
FC(F)(F)c1ccc(OC[C@@H]2CCCN(CC3(c4ccc(Cl)cc4)CCC3)C2)cc1 [compound 76] | < 1000 nM |  | < 1000 nM |  |  |  | > 1000 nM
CC(C)(CN1CCCC(COc2ccc(C(F)(F)F)cc2)C1)c1ccc(Cl)cc1 (stereo not drawn) [compound 42, 1-[2-(chloro-phenyl)-2-methyl-propyl]-3-(4-trifluoromethyl-phenoxymethyl)-piperidine] |  | > 1000 nM |  | < 1000 nM | < 100 nM |  | 
FC(F)(F)c1ccc(CCC2CCCN(CC3(c4ccc(Cl)cc4)CCC3)C2)cc1 (stereo not drawn) [compound 95, 1-[1-(4-Chloro-phenyl)-cyclobutylmethyl]-3-[2-(4-trifluoromethyl-phenyl)-ethyl]-piperidine] |  | < 1000 nM | < 1000 nM | > 1000 nM |  |  | 
OC(CN1CCCC(COc2ccccc2)C1)c1ccc(Cl)cc1 (stereo not drawn) [compound 33, 1-(4-Chloro-phenyl)-2-(3-phenoxymethyl-piperidin-1-yl)-ethanol] | < 1000 nM | < 1000 nM | < 100 nM |  |  |  | 
FC(F)(F)c1ccc(OCC2CN(CC3(c4ccc(Cl)cc4)CCC3)C2)cc1 [compound 105, methanesulfonic acid 1-[1-(4-chloro-phenyl)-cyclobutylmethyl]-3-(4-trifluoromethyl-phenoxymethyl)-azetidine] | < 100 nM | < 1000 nM | < 10 nM |  |  |  | 
OC(CN1CCCC(CCc2ccc(C(F)(F)F)cc2)C1)c1ccc(Cl)cc1 (single isomer, unassigned) [compound 151, 1-(4-Chloro-phenyl)-2-{3-[2-(4-trifluoromethyl-phenyl)-ethyl]-piperidin-1-yl}-ethanol] | < 1000 nM | < 1000 nM | < 1000 nM |  |  |  | 
OC(CN1CCCC(COc2ccc(C(F)(F)F)cc2)C1)C1(c2ccc3c(c2)OCO3)CCC1 (stereo not drawn) [compound 165] | < 100 nM | < 100 nM | < 10 nM |  |  |  | 
O=C(CN1CCC[C@@H](CCc2ccccc2)C1)c1ccc(Cl)cc1 [compound 145, (R)-1-(4-Chloro-phenyl)-2-(3-phenethyl-piperidin-1-yl)-ethanone] | < 1000 nM |  | < 1000 nM |  |  |  | < 1000 nM
OC(CN1CCCC(CCc2ccc(C(F)(F)F)cc2)C1)C1(c2ccc(Cl)cc2)CCC1 (single isomer, unassigned) [compound 195, 1-[1-(4-Chloro-phenyl)-cyclobutyl]-2-{3-[2-(4-trifluoromethyl-phenyl)-ethyl]-piperidin-1-yl}-ethanol] | < 1000 nM | < 1000 nM | < 100 nM |  |  |  | 
CC(CC1CCCN(CC2(c3ccc(Cl)cc3)CCC2)C1)c1ccccc1 (stereo in doubt) [compound 186, (S)-1-[1-(4-Chloro-phenyl)-cyclobutylmethyl]-3-(2-phenyl-propyl)-piperidine] | < 1000 nM | < 1000 nM | < 1000 nM |  |  |  | 
